# Experimental data as given in patent publication US11053204B2, “Pyrimidinyloxy benzene derivatives as herbicides” (FMC Corporation, priority 2015, dated 2021).
# What was measured:
# Assay type in all cases: in vivo
# [1] = tested on: ragweed (common ragweed, Ambrosia elatior); assay: Test A postemergence, visual injury rating; conditions: 0 is no effect, 100 is complete control; for Ragweed plant response rating: 31 g ai/ha, 0 to 100 scale, approximately 10 days; for Ragweed plant response rating (0 to 100 scale): 125 g ai/ha
# From the text: (§1) Seeds of plant species selected from barnyardgrass (Echinochloa crus-galli), kochia (Kochia scoparia), ragweed (common ragweed, Ambrosia elatior), Italian ryegrass (Lolium multiflorum), large (Lg) crabgrass (Digitaria sanguinalis), giant foxtail (Setaria faberii), morningglory (Ipomoea spp.), pigweed (Amaranthus retroflexus), velvetleaf (Abutilon theophrasti), wheat (Triticum aestivum), and corn (Zea mays) were planted into a blend of loam soil and sand and treated preemergence with a directed soil spray using test chemicals formulated in a non-phytotoxic solvent mixture which included a surfactant.
# (§2) At the same time, plants selected from these crop and weed species and also blackgrass (Alopecurus myosuroides), and galium (catchweed bedstraw, Galium aparine) were planted in pots containing the same blend of loam soil and sand and treated with postemergence applications of test chemicals formulated in the same manner. Plants ranged in height from 2 to 10 cm and were in the one- to two-leaf stage for the postemergence treatment. Treated plants and untreated controls were maintained in a greenhouse for approximately 10 days, after which time all treated plants were compared to untreated controls and visually evaluated for injury. Plant response ratings, summarized in Table A, are based on a 0 to 100 scale where 0 is no effect and 100 is complete control. A dash (-) response means no test result.
# [2] = tested on: pigweed (Amaranthus retroflexus); assay: Test A postemergence, visual injury rating; conditions: 0 is no effect, 100 is complete control; for Pigweed plant response rating: 31 g ai/ha, 0 to 100 scale, approximately 10 days; for Pigweed plant response rating (0 to 100 scale): 125 g ai/ha
# From the text: as §1, §2
# [3] = tested on: kochia (Kochia scoparia); assay: Test A postemergence, visual injury rating; conditions: 0 is no effect, 100 is complete control; for Kochia plant response rating: 31 g ai/ha, 0 to 100 scale, approximately 10 days; for Kochia plant response rating (0 to 100 scale): 125 g ai/ha
# From the text: as §1, §2
# [4] = tested on: blackgrass (Alopecurus myosuroides); assay: Test A postemergence, visual injury rating; conditions: 0 is no effect, 100 is complete control; for Blackgrass plant response rating: 31 g ai/ha, 0 to 100 scale, approximately 10 days; for Blackgrass plant response rating (0 to 100 scale): 125 g ai/ha
# From the text: as §1, §2
# [5] = tested on: barnyardgrass (Echinochloa crus-galli); assay: Test A postemergence, visual injury rating; conditions: 0 is no effect, 100 is complete control; for Barnyardgrass plant response rating: 31 g ai/ha, 0 to 100 scale, approximately 10 days; for Barnyardgrass plant response rating (0 to 100 scale): 125 g ai/ha
# From the text: as §1, §2
# [6] = tested on: galium (catchweed bedstraw, Galium aparine); assay: Test A postemergence, visual injury rating; conditions: 0 is no effect, 100 is complete control; for Galium plant response rating: 31 g ai/ha, 0 to 100 scale, approximately 10 days; for Galium plant response rating (0 to 100 scale): 125 g ai/ha
# From the text: as §1, §2
# [7] = tested on: Italian ryegrass (Lolium multiflorum); assay: Test A postemergence, visual injury rating; conditions: 0 is no effect, 100 is complete control; for Ryegrass, Italian plant response rating: 31 g ai/ha, 0 to 100 scale, approximately 10 days; for Ryegrass, Italian plant response rating (0 to 100 scale): 125 g ai/ha
# From the text: as §1, §2
# [8] = tested on: corn (Zea mays); assay: Test A postemergence, visual injury rating; conditions: 0 is no effect, 100 is complete control; for Corn plant response rating: 31 g ai/ha, 0 to 100 scale, approximately 10 days; for Corn plant response rating (0 to 100 scale): 125 g ai/ha
# From the text: as §1, §2
# [9] = tested on: giant foxtail (Setaria faberii); assay: Test A postemergence, visual injury rating; conditions: 0 is no effect, 100 is complete control; for Foxtail, Giant plant response rating: 31 g ai/ha, 0 to 100 scale, approximately 10 days; for Foxtail, Giant plant response rating (0 to 100 scale): 125 g ai/ha
# From the text: as §1, §2
# [10] = tested on: wheat (Triticum aestivum); assay: Test A postemergence, visual injury rating; conditions: 0 is no effect, 100 is complete control; for Wheat plant response rating: 31 g ai/ha, 0 to 100 scale, approximately 10 days; for Wheat plant response rating (0 to 100 scale): 125 g ai/ha
# From the text: as §1, §2
# [11] = tested on: barnyardgrass (Echinochloa crus-galli); assay: Test B flooded paddy test, plant response rating; conditions: 250 g ai/ha; Flood; scale of 0 to 100 where 0 is no effect and 100 is complete control; 13 to 15 days
# How it was run: (§3)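 Visual injury ratings against untreated controls, taken 13 to 15 days after compound was added to paddy water standing 3 cm above the soil.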
# [12] = tested on: rice (Oryza sativa); assay: Test B flooded paddy test, plant response rating; conditions: 250 g ai/ha; Flood; scale of 0 to 100 where 0 is no effect and 100 is complete control; 13 to 15 days
# How it was run: as §3
# [13] = tested on: ducksalad (Heteranthera limosa); assay: Test B flooded paddy test, plant response rating; conditions: 250 g ai/ha; Flood; scale of 0 to 100 where 0 is no effect and 100 is complete control; 13 to 15 days
# How it was run: as §3
# [14] = tested on: sedge, umbrella (small-flower umbrella sedge, Cyperus difformis); assay: Test B flooded paddy test, plant response rating; conditions: 250 g ai/ha; Flood; scale of 0 to 100 where 0 is no effect and 100 is complete control; 13 to 15 days
# How it was run: as §3
# [15] = tested on: ragweed (common ragweed, Ambrosia elatior); assay: Test A preemergence, visual injury rating; conditions: for Plant response rating, Ragweed: 31 g ai/ha, 0 to 100 scale, 0 no effect, 100 complete control; for Ragweed plant response rating: 125 g ai/ha, 0 to 100 scale (0 no effect, 100 complete control)
# How it was run: (§4)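 Pre- and postemergence greenhouse screen. Soil: loam + sand. Spray carrier: solvent mixture, non-phytotoxic, with surfactant. Post timing at 1–2 leaves, height 2–10 cm. Readout: visual injury on a 0–100 scale roughly 10 days after application, untreated plants as reference.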
# [16] = tested on: pigweed (Amaranthus retroflexus); assay: Test A preemergence, visual injury rating; conditions: for Plant response rating, Pigweed: 31 g ai/ha, 0 to 100 scale, 0 no effect, 100 complete control; for Pigweed plant response rating: 125 g ai/ha, 0 to 100 scale (0 no effect, 100 complete control)
# How it was run: as §4
# [17] = tested on: kochia (Kochia scoparia); assay: Test A preemergence, visual injury rating; conditions: for Plant response rating, Kochia: 31 g ai/ha, 0 to 100 scale, 0 no effect, 100 complete control; for Kochia plant response rating: 125 g ai/ha, 0 to 100 scale (0 no effect, 100 complete control)
# How it was run: as §4
# [18] = tested on: barnyardgrass (Echinochloa crus-galli); assay: Test A preemergence, visual injury rating; conditions: for Plant response rating, Barnyardgrass: 31 g ai/ha, 0 to 100 scale, 0 no effect, 100 complete control; for Barnyardgrass plant response rating: 125 g ai/ha, 0 to 100 scale (0 no effect, 100 complete control)
# How it was run: as §4
# [19] = tested on: Italian ryegrass (Lolium multiflorum); assay: Test A preemergence, visual injury rating; conditions: for Plant response rating, Ryegrass, Italian: 31 g ai/ha, 0 to 100 scale, 0 no effect, 100 complete control; for Ryegrass, Italian plant response rating: 125 g ai/ha, 0 to 100 scale (0 no effect, 100 complete control)
# How it was run: as §4
# [20] = tested on: giant foxtail (Setaria faberii); assay: Test A preemergence, visual injury rating; conditions: for Plant response rating, Foxtail, Giant: 31 g ai/ha, 0 to 100 scale, 0 no effect, 100 complete control; for Foxtail, Giant plant response rating: 125 g ai/ha, 0 to 100 scale (0 no effect, 100 complete control)
# How it was run: as §4
Structure (SMILES),Ragweed plant response rating [1],Ragweed plant response rating (0 to 100 scale) [1],Pigweed plant response rating [2],Pigweed plant response rating (0 to 100 scale) [2],Kochia plant response rating [3],Kochia plant response rating (0 to 100 scale) [3],Blackgrass plant response rating [4],Blackgrass plant response rating (0 to 100 scale) [4],Barnyardgrass plant response rating [5],Barnyardgrass plant response rating (0 to 100 scale) [5],Galium plant response rating [6],Galium plant response rating (0 to 100 scale) [6],"Ryegrass, Italian plant response rating [7]","Ryegrass, Italian plant response rating (0 to 100 scale) [7]",Corn plant response rating [8],Corn plant response rating (0 to 100 scale) [8],"Foxtail, Giant plant response rating [9]","Foxtail, Giant plant response rating (0 to 100 scale) [9]",Wheat plant response rating [10],Wheat plant response rating (0 to 100 scale) [10],further results
O=C(OC(CCl)CCl)c1c(Br)cccc1Oc1ncc(Cl)cn1 [Compound 36],0,0,0,60,0,0,0,0,0,0,0,0,0,0,0,0,0,0,0,0,"Plant response rating, Barnyardgrass [11]: 0; Plant response rating, Rice [12]: 0; Plant response rating, Ducksalad [13]: 0; Plant response rating, Sedge, Umbrella [14]: 0; Plant response rating, Ragweed [15]: 0; Ragweed plant response rating [15]: 0; Plant response rating, Pigweed [16]: 0; Pigweed plant response rating [16]: 0; Plant response rating, Kochia [17]: 0; Kochia plant response rating [17]: 0; Plant response rating, Barnyardgrass [18]: 0; Barnyardgrass plant response rating [18]: 0; Plant response rating, Ryegrass, Italian [19]: 0; Ryegrass, Italian plant response rating [19]: 0; Plant response rating, Foxtail, Giant [20]: 0; Foxtail, Giant plant response rating [20]: 0"
C=CC(C)COC(=O)c1c(Br)cccc1Oc1ncc(Cl)cn1 (stereo not drawn) [Compound 37],0,0,20,80,0,40,0,30,0,30,10,40,0,0,0,10,0,40,0,0,"Plant response rating, Barnyardgrass [11]: 0; Plant response rating, Rice [12]: 0; Plant response rating, Ducksalad [13]: 0; Plant response rating, Sedge, Umbrella [14]: 0; Plant response rating, Ragweed [15]: 0; Ragweed plant response rating [15]: 0; Plant response rating, Pigweed [16]: 0; Pigweed plant response rating [16]: 0; Plant response rating, Kochia [17]: 0; Kochia plant response rating [17]: 0; Plant response rating, Barnyardgrass [18]: 0; Barnyardgrass plant response rating [18]: 30; Plant response rating, Ryegrass, Italian [19]: 0; Ryegrass, Italian plant response rating [19]: 0; Plant response rating, Foxtail, Giant [20]: 20; Foxtail, Giant plant response rating [20]: 70"
C#CCCOC(=O)c1c(Br)cccc1Oc1ncc(Cl)cn1 [Compound 38],0,10,80,100,30,60,0,0,10,60,50,80,0,0,0,10,40,90,0,0,"Plant response rating, Barnyardgrass [11]: 0; Plant response rating, Rice [12]: 0; Plant response rating, Ducksalad [13]: 40; Plant response rating, Sedge, Umbrella [14]: 30; Plant response rating, Ragweed [15]: 0; Ragweed plant response rating [15]: 0; Plant response rating, Pigweed [16]: 60; Pigweed plant response rating [16]: 100; Plant response rating, Kochia [17]: 0; Kochia plant response rating [17]: 40; Plant response rating, Barnyardgrass [18]: 20; Barnyardgrass plant response rating [18]: 90; Plant response rating, Ryegrass, Italian [19]: 0; Ryegrass, Italian plant response rating [19]: 0; Plant response rating, Foxtail, Giant [20]: 30; Foxtail, Giant plant response rating [20]: 100"
CC(C)(C)OC(=O)c1c(F)cccc1Oc1ncc(Cl)cn1 [Compound 43],0,0,10,40,0,10,0,0,0,10,20,40,0,0,0,0,0,0,0,0,"Plant response rating, Barnyardgrass [11]: 0; Plant response rating, Rice [12]: 0; Plant response rating, Ducksalad [13]: 0; Plant response rating, Sedge, Umbrella [14]: 0; Plant response rating, Ragweed [15]: 0; Ragweed plant response rating [15]: 0; Plant response rating, Pigweed [16]: 30; Pigweed plant response rating [16]: 90; Plant response rating, Kochia [17]: 100; Kochia plant response rating [17]: 100; Plant response rating, Barnyardgrass [18]: 0; Barnyardgrass plant response rating [18]: 40; Plant response rating, Ryegrass, Italian [19]: 0; Ryegrass, Italian plant response rating [19]: 0; Plant response rating, Foxtail, Giant [20]: 0; Foxtail, Giant plant response rating [20]: 60"
O=C(OC1CCCC1)c1c(Br)cccc1Oc1ncc(Cl)cn1 [Compound 44],0,0,0,0,0,0,0,0,0,0,0,0,0,0,0,0,0,0,0,0,"Plant response rating, Barnyardgrass [11]: 0; Plant response rating, Rice [12]: 0; Plant response rating, Ducksalad [13]: 0; Plant response rating, Sedge, Umbrella [14]: 30; Plant response rating, Ragweed [15]: 0; Ragweed plant response rating [15]: 0; Plant response rating, Pigweed [16]: 0; Pigweed plant response rating [16]: 0; Plant response rating, Kochia [17]: 0; Kochia plant response rating [17]: 0; Plant response rating, Barnyardgrass [18]: 0; Barnyardgrass plant response rating [18]: 0; Plant response rating, Ryegrass, Italian [19]: 0; Ryegrass, Italian plant response rating [19]: 0; Plant response rating, Foxtail, Giant [20]: 0; Foxtail, Giant plant response rating [20]: 40"
